Where a name gives a salt, the structure may show the parent alone.
Legend:
[1] = tested on: Intracellular cAMP levels; assay: Measurement of intracellular cAMP levels in differentiated L6 cells; assay type: cell-based; conditions: Rattus norvegicus, L6, 0.25 h, agonist final concentration 1×10^−5, 15 min, alpha screen cAMP kit, relative to isoproterenol, read-out: Biological example 2: intracellular cAMP activity compared to that of isoproterenol
Method: (§1) L6-myoblasts were grown in Dulbecco's Modified Eagle's Medium (DMEM) containing 4.5 g/l glucose supplemented with 10% fetal bovine serum, 2 mM L-Glutamine, 50 U/ml penicillin, 50 μg/ml streptomycin and 10 mM HEPES. Cells were plated at 1×10^5 cells per ml in 24-well plates. After reaching 90% confluence the cells were grown in medium containing 2% FBS for 7 days where upon cells differentiated into myotubes.
Differentiated cells were serum-starved over night and stimulated with agonist, final concentration 1×10^−5, for 15 min in stimulation buffer (HBSS supplemented with 1% BSA, 5 mM HEPES and 1 mM IBMX, pH 7.4). The medium was then aspirated and to end the reaction 100 μL of 95% EtOH was added to each well of a 24-well plate and cells were kept in −20° C. over night. The EtOH was let to evaporate and 500 μL of lysis buffer (1% BSA, 5 mM HEPES and 0.3% Tween-20, pH 7.4) was added to each well before put in −80° C. for 30 min and then kept in −20° C. Intracellular cAMP levels were detected using an alpha screen cAMP kit (6760635D from Perkin Elmer). The activity for each compound is compared to that of isoproterenol.

L6-myotubes = assay: Glucose uptake (3H-2-deoxy-glucose) in differentiated L6-myotubes; assay type: cell-based; conditions: agonist final concentration 1×10^−5, 50 nM 3H-2-deoxy-glucose, relative to isoproterenol, read-out: Biological example 1: glucose uptake activity compared to that of isoproterenol
Method: as §1
Differentiated L6-myotubes were serum-starved over night in medium containing 0.5% fatty-acid free BSA and stimulated with agonist, final concentration 1×10^−5. After 1 h 40 min cells were washed with warm, glucose free medium or PBS and another portion of agonist was added to glucose free medium. After 20 min the cells were exposed to 50 nM ^3H-2-deoxy-glucose for another 10 min before washed in ice cold glucose free medium or PBS and lysed in 0.2 M NaOH for 1 h in 60° C.

Row | SMILES | Emax [1] [%] | Emax (L6-myotubes) [%]
1 | CCCCNCC(O)c1ccc(F)c(NC(C)=O)c1F (centres unmarked) [Example 8, N-(3-(2-(Butylamino)-1-hydroxyethyl)-2,6-difluorophenyl)acetamide] | < 25 | 25 to 50
2 | CCCCNCC(O)c1ccc(F)c(N)c1F (centres unmarked) [Example 7, 1-(3-Amino-2,4-difluorophenyl)-2-(butylamino)ethan-1-ol] | < 25 | > 75
3 | CCC[C@H](C)NC[C@H](O)c1cccc(F)c1 [Example 13, (R)-1-(3-fluorophenyl)-2-(((S)-pentan-2-yl)amino)ethan-1-ol] | < 25 | 50 to 75
4 | CC(C)(C)NC[C@H](O)c1cccc(F)c1 [Example 5, (R)-2-(tert-Butylamino)-1-(3-fluorophenyl)ethan-1-ol] | < 25 | > 75
5 | CCC[C@@H](C)NC[C@H](O)c1cccc(F)c1 [Example 12, (R)-1-(3-fluorophenyl)-2-(((R)-pentan-2-yl)amino)ethan-1-ol] | < 25 | > 75
6 | CC(C)(C)NC[C@H](O)c1ccc(F)c(O)c1 [Example 23, (R)-5-(2-(tert-Butylamino)-1-hydroxyethyl)-2-fluorophenol acetate] | 50 to 75 | > 75
7 | CCCCNCC(O)c1ccc(F)c(F)c1 (centres unmarked) [Example 2, 2-(Butylamino)-1-(3,4-difluorophenyl)ethan-1-ol] | < 25 | 50 to 75
8 | CCCCNCC(O)c1cc(F)c(N)c(F)c1 (centres unmarked) [Example 6, 1-(4-Amino-3,5-difluorophenyl)-2-(butylamino)ethan-1-ol] | > 75 | > 75
9 | CCCCNC[C@H](O)c1cccc(N)c1F [Example 28, (R)-1-(3-Amino-2-fluorophenyl)-2-(butylamino)ethan-1-ol dihydrochloride] | < 25 | 50 to 75
10 | CCCCNC[C@H](O)c1cccc(F)c1F [Example 16, (R)-2-(Butylamino)-1-(2,3-difluorophenyl)ethan-1-ol] | < 25 | > 75
11 | CC1(NC[C@H](O)c2cccc(F)c2)CCC1 [Example 21, (R)-1-(3-fluorophenyl)-2-((1-methylcyclobutyl)amino)ethan-1-ol] | 25 to 50 | > 75
12 | CCCCNC[C@H](O)c1cccc(F)c1 [Example 4, (R)-2-(Butylamino)-1-(3-fluorophenyl)ethan-1-ol] | < 25 | > 75
13 | CCC[C@H](C)NC[C@H](O)c1ccc(F)cc1 [Example 11, (R)-1-(4-Fluorophenyl)-2-(((S)-pentan-2-yl)amino)ethan-1-ol] | < 25 | 25 to 50
14 | CC(C)(C)NC[C@H](O)c1cccc(O)c1F [Example 25, (R)-3-(2-(tert-Butylamino)-1-hydroxyethyl)-2-fluorophenol] | 50 to 75 | 50 to 75
15 | CCCC(C)(C)NC[C@H](O)c1cccc(F)c1 [Example 14, (R)-1-(3-Fluorophenyl)-2-((2-methylpentan-2-yl)amino)ethan-1-ol] | < 25 | > 75
16 | CC(C)(C)NC[C@H](O)c1ccc(F)cc1O [Example 19, (R)-2-(2-(tert-Butylamino)-1-hydroxyethyl)-5-fluorophenol acetate] | < 25 | 50 to 75

Row | SMILES | Emax [1] [%] | Emax (L6-myotubes) [%]
17 | CCCCNC[C@H](O)c1cccc(O)c1F [Example 26, (R)-3-(2-(Butylamino)-1-hydroxyethyl)-2-fluorophenol] | 25 to 50 | > 75
18 | CCCCNC[C@H](O)c1ccc(F)cc1 [Example 3, (R)-2-(Butylamino)-1-(4-fluorophenyl)ethan-1-ol] | < 25 | 25 to 50
19 | CCCCNC[C@H](O)c1ccc(F)cc1O [Example 20, (R)-2-(2-(Butylamino)-1-hydroxyethyl)-5-fluorophenol acetate] | < 25 | > 75
20 | CC(C)(C)NC[C@H](O)c1ccccc1F [Example 17, (R)-2-(tert-Butylamino)-1-(2-fluorophenyl)ethan-1-ol] | < 25 | 50 to 75
21 | CCCCNC[C@H](O)c1ccc(F)c(O)c1 [Example 24, (R)-5-(2-(Butylamino)-1-hydroxyethyl)-2-fluorophenol acetate] | < 25 | > 75
22 | CCCCNC[C@H](O)c1ccccc1F [Example 18, (R)-2-(Butylamino)-1-(2-fluorophenyl)ethan-1-ol] | < 25 | > 75
23 | Cc1c(F)cccc1[C@@H](O)CNC(C)(C)C [Example 32, (R)-2-(tert-butylamino)-1-(3-fluoro-2-methylphenyl)ethan-1-ol] | < 25 | > 75
24 | O[C@@H](CNC1(C(F)(F)F)CC1)c1cccc(F)c1 [Example 30, (R)-1-(3-fluorophenyl)-2-O-(trifluoromethyl)cyclopropyl)amino)ethan-1-ol hydrochloride] | < 25 | 50 to 75
25 | CC(C)(C)NC[C@H](O)c1cccc(F)c1F [Example 15, (R)-2-(tert-Butylamino)-1-(2,3-difluorophenyl)ethan-1-ol] | 25 to 50 | > 75
26 | CCC[C@@H](C)NC[C@H](O)c1ccc(F)cc1 [Example 10, (R)-1-(4-Fluorophenyl)-2-(((R)-pentan-2-yl)amino)ethan-1-ol] | < 25 | 50 to 75
27 | CC(C)(C)NC[C@H](O)c1cccc(N)c1F [Example 27, (R)-1-(3-Amino-2-fluorophenyl)-2-(tert-butylamino)ethan-1-ol] | 25 to 50 | > 75
28 | CC(C)(C)CNC[C@H](O)c1cccc(F)c1 [Example 29, (R)-1-(3-Fluorophenyl)-2-(neopentylamino)ethan-1-ol hydrochloride] | < 25 | 25 to 50
29 | CCCCNCC(O)c1cc(F)cc(F)c1 (centres unmarked) [Example 1, 2-(Butylamino)-1-(3,5-difluorophenyl)ethan-1-ol] | < 25 | 50 to 75
30 | CC1(NC[C@H](O)c2cccc(F)c2)CC1 [Example 22, (R)-1-(3-fluorophenyl)-2-((1-methylcyclopropyl)amino)ethan-1-ol] | < 25 | > 75
31 | CC(C)(C)NC[C@H](O)c1ccc(F)c(N)c1F [Example 31, (R)-1-(3-amino-2,4-difluorophenyl)-2-(tert-butylamino)ethan-1-ol hydrochloride] | < 25 | > 75

Reference: patent publication US12280023B2, “Fluorophenyl beta-hydroxyethylamines and their use in the treatment of hyperglycaemia” (ATROGI AB, priority 2017, dated 2025)
